Patent publication US11357779B2 (G1 Therapeutics, Inc., priority 2018, dated 2022)
Like-named read-outs stand apart in the source and are kept apart here.

Test: Plasma concentration versus time of Compound I and metabolite Compound III in patients dosed QD or BID with Form B of Compound II plus fulvestrant
Format: in vivo, human
Details: for concentration at 0 h / concentration at 1 h / concentration at 2 h / concentration at 3 h / concentration at 4 h / concentration at 6 h / concentration at 8 h / concentration at 10 h / concentration at 12 h / concentration at 8 day / concentration at 15 day / concentration at 22 day: human, plasma, oral, 100 mg; for concentration at 1 h: Day 1, 1.0 h; for concentration at 2 h: Day 1, 2.0 h; for concentration at 3 h: Day 1, 3.0 h; for concentration at 4 h: Day 1, 4.0 h; for concentration at 6 h: Day 1, 6.0 h; for concentration at 8 h: Day 1, 8.0 h; for concentration at 10 h: Day 1, 10.0 h; for concentration at 12 h: Day 1, 12.0 h
Excerpt: Patients were enrolled into 1 of 2 parallel, independently operating, dose-escalation dosing cohorts with Form B of Compound II administered continuously either once daily (QD) or twice daily (BID) with food with fixed-dose fulvestrant (intramuscularly every 14 days for the first three injections and then every 28 days). Pre- or perimenopausal patients also received goserelin for the duration of study treatment. A […] agonist was started at least 28 days before the first dose of Form B, and those patients who were taking another LHRH agonist were switched to goserelin on Day 1. Patients were split into […] cohorts providing once a day (QD) dosing of 200 mg, 300 mg, 400 mg, 500 mg, or 650 mg of Form B, or twice a day (BID) dosing of 100 mg, 150 mg, or 200 mg of Form B. The second dose in BID cohorts was not administered in the evening until at least 12 hours after the initial morning dose of Form B. The dosing cohorts for Form B of Compound II are provided in Table 1.
Blood samples were collected at the following time points relative to the morning dose of Form B at Day 1 and at Day 29: pre-dose (0 hour) and 1, 2, 3, 4, 6, 8, 10, 12 (prior to the evening dose in the BID cohorts), and 24 (prior to the next day's morning dose) hours after dosing. A 5-minute time window was allowed for samples collected between the predose and 3 hours after Form B dosing. A 15-minute window was allowed for samples collected between 4 to 12 hours after Form B dosing. A 1-hour window was allowed for the sample collected 24 hours after Form B dosing. Blood samples for Compound I PK trough levels were collected pre-dose at Day 8, Day 15, and Day 22 prior to the morning administration of Compound I. Plasma concentrations of Compound I and its metabolite, Compound III, were measured using validated methods.
Analysis of plasma concentration versus time data for calculation of standard pharmacokinetic (PK) parameters following oral administration was conducted using Phoenix WinNonlin version 6.3 using actual blood sampling times.

[1] = Cohort 3, 400 mg QD of Form B, Day 8
[2] = Cohort 3, 400 mg QD of Form B, Day 15
[3] = Cohort 3, 400 mg QD of Form B, Day 22
[4] = Cohort 4, 500 mg QD of Form B, Day 8
[5] = Cohort 4, 500 mg QD of Form B, Day 15
[6] = Cohort 4, 500 mg QD of Form B, Day 22
[7] = Cohort 7, 150 mg BID of Form B, Day 29, 0.0 h
[8] = Cohort 7, 150 mg BID of Form B, Day 29, 1.0 h
[9] = Cohort 7, 150 mg BID of Form B, Day 29, 2.0 h
[10] = Cohort 7, 150 mg BID of Form B, Day 29, 3.0 h
[11] = Cohort 7, 150 mg BID of Form B, Day 29, 4.0 h
[12] = Cohort 7, 150 mg BID of Form B, Day 29, 6.0 h
[13] = Cohort 7, 150 mg BID of Form B, Day 29, 8.0 h
[14] = Cohort 7, 150 mg BID of Form B, Day 29, 10.0 h
[15] = Cohort 7, 150 mg BID of Form B, Day 29, 12.0 h
[16] = Cohort 8, 200 mg BID of Form B, Day 8
[17] = Cohort 8, 200 mg BID of Form B, Day 15
[18] = Cohort 8, 200 mg BID of Form B, Day 22
[19] = Cohort 8, 200 mg BID of Form B, Day 29, 0.0 h
[20] = Cohort 8, 200 mg BID of Form B, Day 29, 1.0 h
[21] = Cohort 8, 200 mg BID of Form B, Day 29, 2.0 h
[22] = Cohort 8, 200 mg BID of Form B, Day 29, 3.0 h
[23] = Cohort 8, 200 mg BID of Form B, Day 29, 4.0 h
[24] = 100 mg BID of Form B, Mean, read-out: Compound I Concentration
[25] = 100 mg BID of Form B, Median, read-out: Compound I Concentration

## CC(C)N1CCN(c2ccc(Nc3ncc4cc5n(c4n3)C3(CCCCC3)CNC5=O)nc2)CC1 [Compound I, 2′-((5-(4-isopropylpiperazin-1-yl)pyridin-2-yl)amino)-7′,8′-dihydro-6′H-spiro[cyclohexane-1,9′-pyrazino[1′,2′:1,5]pyrrolo[2,3-d]pyrimidin]-6′-one]
200 mg QD of Form B, Day 8, Mean
  Trough Compound I Concentration: 4.93 ng/mL
200 mg QD of Form B, Day 8, Median
  Trough Compound I Concentration: 4.22 ng/mL
200 mg QD of Form B, Day 15, Mean
  Trough Compound I Concentration: 5.56 ng/mL
200 mg QD of Form B, Day 15, Median
  Trough Compound I Concentration: 4.59 ng/mL
200 mg QD of Form B, Day 22, Mean
  Trough Compound I Concentration: 6.24 ng/mL
200 mg QD of Form B, Day 22, Median
  Trough Compound I Concentration: 5.32 ng/mL
300 mg QD of Form B, Day 8, Mean
  Trough Compound I Concentration: 14.0 ng/mL
300 mg QD of Form B, Day 8, Median
  Trough Compound I Concentration: 17.3 ng/mL
300 mg QD of Form B, Day 15, Mean
  Trough Compound I Concentration: 16.7 ng/mL
300 mg QD of Form B, Day 15, Median
  Trough Compound I Concentration: 19.9 ng/mL
300 mg QD of Form B, Day 22, Mean
  Trough Compound I Concentration: 16.4 ng/mL
300 mg QD of Form B, Day 22, Median
  Trough Compound I Concentration: 10.9 ng/mL
[1]
  Trough Compound I Concentration, Max: 6.85 ng/mL
  Trough Compound I Concentration, Mean: 5.63 ng/mL
  Trough Compound I Concentration, Median: 6.16 ng/mL
  Trough Compound I Concentration, Min: 3.87 ng/mL
[2]
  Trough Compound I Concentration, Max: 10.2 ng/mL
  Trough Compound I Concentration, Mean: 6.66 ng/mL
  Trough Compound I Concentration, Median: 5.33 ng/mL
  Trough Compound I Concentration, Min: 4.46 ng/mL
[3]
  Trough Compound I Concentration, Max: 11.7 ng/mL
  Trough Compound I Concentration, Mean: 9.34 ng/mL
  Trough Compound I Concentration, Median: 10.4 ng/mL
  Trough Compound I Concentration, Min: 5.91 ng/mL
[4]
  Trough Compound I Concentration, Mean: 17.1 ng/mL
  Trough Compound I Concentration, Min: 10.6 ng/mL
[5]
  Trough Compound I Concentration, Mean: 23.8 ng/mL
  Trough Compound I Concentration, Min: 14.5 ng/mL
[6]
  Trough Compound I Concentration, Mean: 19.8 ng/mL
  Trough Compound I Concentration, Min: 14.4 ng/mL
Cohort 7, 150 mg BID of Form B, Day 15
  Trough Compound I Concentration, Mean: 24.8 ng/mL
Cohort 7, 150 mg BID of Form B, Day 22
  Trough Compound I Concentration, Mean: 20.6 ng/mL
[7]
  Compound I Concentration, Mean: 26.2 ng/mL
  Compound I Concentration, Min: 9.03 ng/mL
[8]
  Compound I Concentration, Max: 57.0 ng/mL
  Compound I Concentration, Mean: 37.6 ng/mL
  Compound I Concentration, Min: 27.0 ng/mL
[9]
  Compound I Concentration, Max: 64.9 ng/mL
  Compound I Concentration, Mean: 41.3 ng/mL
  Compound I Concentration, Min: 24.6 ng/mL
[10]
  Compound I Concentration, Max: 76.6 ng/mL
  Compound I Concentration, Mean: 46.0 ng/mL
  Compound I Concentration, Min: 25.7 ng/mL
[11]
  Compound I Concentration, Max: 83.2 ng/mL
  Compound I Concentration, Mean: 50.2 ng/mL
  Compound I Concentration, Min: 30.5 ng/mL
[12]
  Compound I Concentration, Max: 67.2 ng/mL
  Compound I Concentration, Mean: 38.0 ng/mL
  Compound I Concentration, Min: 20.3 ng/mL
[13]
  Compound I Concentration, Max: 67.4 ng/mL
  Compound I Concentration, Mean: 36.7 ng/mL
  Compound I Concentration, Min: 15.8 ng/mL
[14]
  Compound I Concentration, Max: 59.7 ng/mL
  Compound I Concentration, Mean: 32.2 ng/mL
  Compound I Concentration, Min: 13.0 ng/mL
[15]
  Compound I Concentration, Max: 58.1 ng/mL
  Compound I Concentration, Mean: 28.5 ng/mL
  Compound I Concentration, Min: 10.2 ng/mL
[16]
  Trough Compound I Concentration, Max: 19.7 ng/mL
  Trough Compound I Concentration, Mean: 9.41 ng/mL
  Trough Compound I Concentration, Median: 6.82 ng/mL
  Trough Compound I Concentration, Min: 1.72 ng/mL
[17]
  Trough Compound I Concentration, Max: 16.3 ng/mL
  Trough Compound I Concentration, Mean: 11.0 ng/mL
  Trough Compound I Concentration, Median: 11.0 ng/mL
  Trough Compound I Concentration, Min: 5.71 ng/mL
[18]
  Trough Compound I Concentration, Max: 15.5 ng/mL
  Trough Compound I Concentration, Mean: 7.11 ng/mL
  Trough Compound I Concentration, Median: 5.83 ng/mL
  Trough Compound I Concentration, Min: 0.00 ng/mL
[19]
  Compound I Concentration, Max: 17.2 ng/mL
  Compound I Concentration, Median: 6.54 ng/mL
[20]
  Compound I Concentration, Max: 13.3 ng/mL
  Compound I Concentration, Median: 9.29 ng/mL
[21]
  Compound I Concentration, Max: 17.0 ng/mL
  Compound I Concentration, Median: 13.3 ng/mL
[22]
  Compound I Concentration, Max: 22.5 ng/mL
  Compound I Concentration, Median: 15.6 ng/mL
[23]
  Compound I Concentration, Max: 30.5 ng/mL
  Compound I Concentration, Median: 25.1 ng/mL
Cohort 8, 200 mg BID of Form B, Day 29, 6.0 h
  Compound I Concentration, Median: 21.1 ng/mL
Cohort 8, 200 mg BID of Form B, Day 29, 8.0 h
  Compound I Concentration, Median: 14.8 ng/mL
Cohort 8, 200 mg BID of Form B, Day 29, 10.0 h
  Compound I Concentration, Median: 11.7 ng/mL
Cohort 8, 200 mg BID of Form B, Day 29, 12.0 h
  Compound I Concentration, Median: 12.4 ng/mL
100 mg BID of Form B, Day 1, 0.0 h, Mean, read-out: Compound I Concentration
  concentration at 0 h: 0 ng/mL
100 mg BID of Form B, Day 1, 0.0 h, Median, read-out: Compound I Concentration
  concentration at 0 h: 0 ng/mL
[24]
  concentration at 1 h: 2.8 ng/mL
  concentration at 2 h: 6.21 ng/mL
  concentration at 3 h: 8.72 ng/mL
  concentration at 4 h: 8.98 ng/mL
  concentration at 6 h: 5.7 ng/mL
  concentration at 8 h: 4.07 ng/mL
  concentration at 10 h: 3.29 ng/mL
  concentration at 12 h: 2.93 ng/mL
[25]
  concentration at 1 h: 2.6 ng/mL
  concentration at 2 h: 5.71 ng/mL
  concentration at 3 h: 8.09 ng/mL
  concentration at 4 h: 7.47 ng/mL
  concentration at 6 h: 5.12 ng/mL
  concentration at 8 h: 3.71 ng/mL
  concentration at 10 h: 2.91 ng/mL
  concentration at 12 h: 2.2 ng/mL
Cohort 6, 100 mg BID of Form B, Day 8, read-out: Trough Compound I Concentration, Max
  concentration at 8 day: 23.7 ng/mL
Cohort 6, 100 mg BID of Form B, Day 8, read-out: Trough Compound I Concentration, Mean
  concentration at 8 day: 8.78 ng/mL
Cohort 6, 100 mg BID of Form B, Day 8, read-out: Trough Compound I Concentration, Median
  concentration at 8 day: 5.49 ng/mL
Cohort 6, 100 mg BID of Form B, Day 8, read-out: Trough Compound I Concentration, Min
  concentration at 8 day: 3.29 ng/mL
Cohort 6, 100 mg BID of Form B, Day 15, read-out: Trough Compound I Concentration, Max
  concentration at 15 day: 22 ng/mL
Cohort 6, 100 mg BID of Form B, Day 15, read-out: Trough Compound I Concentration, Mean
  concentration at 15 day: 8.92 ng/mL
Cohort 6, 100 mg BID of Form B, Day 15, read-out: Trough Compound I Concentration, Median
  concentration at 15 day: 6.34 ng/mL
Cohort 6, 100 mg BID of Form B, Day 15, read-out: Trough Compound I Concentration, Min
  concentration at 15 day: 3.31 ng/mL
Cohort 6, 100 mg BID of Form B, Day 22, read-out: Trough Compound I Concentration, Max
  concentration at 22 day: 10.9 ng/mL
Cohort 6, 100 mg BID of Form B, Day 22, read-out: Trough Compound I Concentration, Mean
  concentration at 22 day: 5.7 ng/mL
Cohort 6, 100 mg BID of Form B, Day 22, read-out: Trough Compound I Concentration, Median
  concentration at 22 day: 4.42 ng/mL
Cohort 6, 100 mg BID of Form B, Day 22, read-out: Trough Compound I Concentration, Min
  concentration at 22 day: 2.34 ng/mL
Cohort 6, 100 mg BID of Form B, Day 29, 0.0 h, read-out: Compound I Concentration, Max
  concentration at 0 h: 9.2 ng/mL
Cohort 6, 100 mg BID of Form B, Day 29, 0.0 h, read-out: Compound I Concentration, Mean
  concentration at 0 h: 4.35 ng/mL
